Results on twelve compounds are retold here after patent publication US10167296B2, “Sulfoximine substituted quinazolines for pharmaceutical compositions” (EVOTEC INTERNATIONAL GMBH, priority 2014, dated 2019).

Usually IC50 stands for the point on the concentration scale where inhibition reaches its midpoint.

Assay [1] concerns MNK2 (MNK2a or MNK2b) or MNK1. The note with it: cell culture cells transfected with MNK2 (MNK2a or MNK2b) or MNK1; cited from earlier work.
Assay [2] has as its target MNK2a (pre-activated GST-MNK2a) (Homo sapiens (Human), UniProt Q9HBH9). As to the kind of experiment: MNK2a in vitro kinase assay (assay 1), ADP-Glo. The note with it: read-out: Mnk2 IC50. Format: biochemical. How it is done:
A. MNK2a In Vitro Kinase Assay (Assay 1)
The inhibition of kinase activity of MNK2a was assessed using pre-activated GST-MNK2a. The white, 384-well OptiPlate F plates were purchased from PerkinElmer. The ADP-Glo Kinase Assay (including ultra pure ATP) was purchased from Promega (V9103). Activated MNK2a was obtained as described in WO2011/104340. […] ID No. 5 of WO 2011/104340 by the C-terminal —CONH2 group, was purchased from Thermo Fisher Scientific. All other materials were of highest grade commercially available. Compounds are tested in either serial dilutions or single dose concentrations. The compound stock solutions are 10 mM in 100% DMSO The serial compound dilutions are prepared in 100% DMSO followed by 1:27.3 intermediate dilution in assay buffer. The final DMSO concentration in assay will be <3%.
In the 384-well plates 3 μl of test compound from the intermediate dilution is mixed with 4 μl of the activated MNK2 enzyme (final concentration of 10 nM) and 4 μl of the peptide (final concentration of 25 μM)/ultra pure ATP (final concentration of 20 μM), all dissolved in assay buffer. This step is followed by an incubation time of 90 min, then 10 μl of ADP Glo reagent are added, followed by 40 min of incubation. Then 20 μl of kinase detection reagent are admixed. The plates are sealed and after an incubation period of 30 min, the luminescence signal is measured in an Envision reader to determine the amount of produced ADP. All incubation steps are performed at room temperature.
The assay buffer consists of 20 mM HEPES, 2 mM DTT, 0.01% BSA, 20 mM MgCl2 and 0.1% Pluronic F-127.
The luminescent signal generated is proportional to the ADP concentration produced and is correlated with activated MNK2 activity. The analysis of the data is performed by the calculation of the percentage of ATP consumption of activated MNK2 in the presence of the test compound compared to the consumption of ATP in the presence of activated MNK2 without compound. (RLU(sample)−RLU(low control))*100/(RLU(high value)−RLU(low control))
[RLU=Relative Luminescence Units]
Values of more than 100% CTL are normally related to compound/sample specific physico-chemical properties (e.g. solubility, light absorbance, fluorescence).
IC50 values based on dose response curves are calculated with the AssayExplorer software.
A general note: In ADP-Glo the light output rises with the ADP produced.

Assay [3] concerns the target MNK1a (pre-activated GST-MNK1a) (Homo sapiens (Human), UniProt Q9BUB5). In words: MNK1 in vitro kinase assay (assay 2), Z'-LYTE. The assay is classed as biochemical. The conditions noted are these: for inhibition at 1 µM: compound concentration of 1 μM, read-out: Mnk1 % Inh. From the text:
B. MNK1 In Vitro Kinase Assay (Assay 2)
MNK1 Data can be obtained from the MNK1 Z′-LYTE® assay. The MNK1 Z′-LYTE® screening protocol and assay conditions are also described on www.invitrogen.com.
The assay is described as follows:
The Z′-LYTE® biochemical assay employs a fluorescence-based, coupled-enzyme format and is based on the differential sensitivity of phosphorylated and non-phosphorylated peptides to proteolytic cleavage. The peptide substrate is labeled with two fluorophores—one at each end—that make up a FRET pair.
In the primary reaction, the kinase transfers the gamma-phosphate of ATP to a single tyrosine, serine or threonine residue in a synthetic FRET-peptide. In the secondary reaction, a site-specific protease recognizes and cleaves non-phosphorylated FRET-peptides. Phosphorylation of FRET-peptides suppresses cleavage by the Development Reagent. Cleavage disrupts FRET between the donor (i.e., coumarin) and acceptor (i.e., fluorescein) fluorophores on the FRET-peptide, whereas uncleaved, phosphorylated FRET-peptides maintain FRET. A ratiometric method, which calculates the ratio (the Emission Ratio) of donor emission to acceptor emission after excitation of the donor fluorophore at 400 nm, is used to quantitate reaction progress, as shown in the equation below. Emission Ratio=Coumarin Emission(445 nm)/Fluorescein Emission(520 nm)
The inhibition of kinase activity of MNK1a was assessed using pre-activated GST-MNK1a. The 2×MKNK1 (MNK1) mixture is prepared in 50 mM HEPES pH 7.5, 0.01% BRIJ-35, 10 mM MgCl2, 4 mM MnCl2, 1 mM EGTA, 2 mM DTT. The final 10 μL Kinase Reaction consists of 13.5-54 ng MKNK1 (MNK1) and 2 μM Ser/Thr 07 in 50 mM HEPES pH 7.5, 0.01% BRIJ-35, 10 mM MgCl2, 2 mM MnCl2, 1 mM EGTA, 1 mM DTT. After the 1 hour Kinase Reaction incubation, 5 μL of a 1:32768 dilution of Development Reagent A is added.
The Test Compounds are screened in 1% DMSO (final) in the well.
All Peptide/Kinase Mixtures are diluted to a 2×working concentration in the MNK1 Kinase Buffer.
All ATP Solutions are diluted to a 4×working concentration in Kinase Buffer (50 mM HEPES pH 7.5, 0.01% BRIJ-35, 10 mM MgCl2, 1 mM EGTA).
Development Reagent Solution:
The Development Reagent is diluted in Development Buffer
Bar-coded Corning, low volume NBS, 384-well plate (Corning Cat. #3676)
1. 2.5 μL—4×Test Compound
2. 5 μL—2×Peptide/Kinase Mixture
5. 60-minute Kinase Reaction incubation at room temperature
6. 5 μL—Development Reagent Solution
8. 60-minute Development Reaction incubation at room temperature
9. Read on fluorescence plate reader and analyze the data
The following equations are used for each set of data points:
Correction for Background Fluorescence: FISample−FITCFI Ctl Emission Ratio (using values corrected for background fluorescence):Coumarin Emission (445 nm)/Fluorescein Emission (520 nm)
% Phosphorylation (% Phos): 1−((Emission Ratio×F100%)−C100%)/((C0%−C100%)+[Emission Ratio×(F100%−F0%)])*100
% Inhibition: 1−(% PhosSample/% Phos0% Inhibition Ctl)*100 FI=Fluorescence Intensity C100%=Average Coumarin emission signal of the 100% Phos. Control C0%=Average Coumarin emission signal of the 0% Phos. Control F100%=Average Fluorescein emission signal of the 100% Phos. Control F0%=Average Fluorescein emission signal of the 0% Phos. Control
SelectScreen® Kinase Profiling Service uses XLfit from IDBS. The dose response curve is curve fit to model number 205 (sigmoidal dose-response model).

MNK2a (pre-activated GST-MNK2a), sequence (Q9HBH9 whole entry): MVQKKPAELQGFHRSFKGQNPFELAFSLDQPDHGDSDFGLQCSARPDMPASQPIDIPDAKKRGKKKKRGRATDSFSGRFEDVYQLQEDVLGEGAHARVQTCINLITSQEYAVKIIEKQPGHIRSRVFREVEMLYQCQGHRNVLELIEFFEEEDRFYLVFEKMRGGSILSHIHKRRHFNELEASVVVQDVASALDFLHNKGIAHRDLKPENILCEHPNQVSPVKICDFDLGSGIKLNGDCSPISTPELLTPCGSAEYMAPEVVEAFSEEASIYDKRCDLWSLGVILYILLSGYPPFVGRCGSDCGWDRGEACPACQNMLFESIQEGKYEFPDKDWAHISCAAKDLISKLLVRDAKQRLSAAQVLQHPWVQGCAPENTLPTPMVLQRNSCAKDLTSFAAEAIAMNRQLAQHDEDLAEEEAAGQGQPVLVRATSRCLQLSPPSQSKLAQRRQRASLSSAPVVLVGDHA
MNK1a (pre-activated GST-MNK1a), sequence (Q9BUB5 other isoform, or with tags, fused parts or gaps): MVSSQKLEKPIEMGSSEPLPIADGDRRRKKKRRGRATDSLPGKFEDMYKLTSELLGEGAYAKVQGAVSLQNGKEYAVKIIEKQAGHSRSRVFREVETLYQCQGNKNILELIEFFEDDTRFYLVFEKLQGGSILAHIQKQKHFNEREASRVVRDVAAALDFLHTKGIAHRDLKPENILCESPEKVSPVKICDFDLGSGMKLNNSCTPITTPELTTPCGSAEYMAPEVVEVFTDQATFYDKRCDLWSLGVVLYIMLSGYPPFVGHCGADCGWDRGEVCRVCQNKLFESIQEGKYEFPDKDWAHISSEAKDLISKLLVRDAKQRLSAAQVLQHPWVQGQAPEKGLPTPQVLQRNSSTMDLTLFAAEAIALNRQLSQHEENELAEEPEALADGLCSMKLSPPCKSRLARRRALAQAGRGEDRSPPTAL

With `Nc1ncnc2n[nH]c(Nc3ccc(F)cc3)c12` [CGP57380], the “reduction of phosphorylated elF4E” value in assay [1] is “strong reduction”. For the compound `COc1c(N=S2(=O)CCC2)cc2ncnc(Nc3ccc(F)cc3O[C@H](C)C(=O)N[C@@H](C)C(F)(F)F)c2c1C` [Example 2.53], the IC50 in assay [2] is 1.6 nM. For the same compound, in assay [3], the inhibition at 1 µM was determined as 105%. Consider `COc1c(N=S2(=O)CCCC2)cc2ncnc(Nc3ccc(F)cc3O[C@H](C)C(F)(F)F)c2c1C` [Example 2.54], for which the IC50 in assay [2] is 1.6 nM. For the same compound, the inhibition at 1 µM in assay [3] was determined as 91%.

With `COc1c(N=S2(=O)CCCC2)cc2ncnc(Nc3ccc(F)cc3O[C@@H]3CO[C@H]4[C@@H]3OC[C@H]4OC)c2c1Cl` [Example 2.55], the IC50 in assay [2] came out at 1.6 nM. In addition, the inhibition at 1 µM in assay [3] stood at 104%.

In the case of `COc1c(N=S2(=O)CCCC2)cc2ncnc(Nc3ccc(Cl)cc3O[C@H](C)C(=O)NCC(F)(F)F)c2c1C` [Example 2.56], the IC50 in assay [2] came out at 2.7 nM. In assay [3], the inhibition at 1 µM turned out to be 97%.

Regarding `COc1c(N=S2(=O)CCC2)cc2ncnc(Nc3ccc(F)cc3O[C@H]3CCOC3)c2c1C` [Example 2.57], the IC50 in assay [2] worked out at 1.1 nM; in assay [3], 22 nM. On the same counts, the results for `COc1c(N=S2(=O)CCC2)cc2ncnc(Nc3ccc(F)cc3O[C@H]3CC[C@H](O)CC3)c2c1C` [Example 2.58] are 2.4 nM and 38 nM. Take `COc1c(N=S2(=O)CCC2)cc2ncnc(Nc3ccc(F)cc3O[C@@H]3CO[C@@H]4CCO[C@@H]43)c2c1Cl` [Example 2.59]: the IC50 in assay [2] turned out to be 1.4 nM. Further, in assay [3], the inhibition at 1 µM amounted to 108%.

Take `Cc1c(OCC2CC2)c(N=S(C)(C)=O)cc2ncnc(Nc3ccc(F)cc3O[C@H](C)C(F)(F)F)c12` [Example 3.01]: the IC50 in assay [2] came out at 3.3 nM; in assay [3] it was 180 nM. As for `COCCOc1c(N=S(C)(C)=O)cc2ncnc(Nc3ccc(F)cc3O[C@H](C)C(F)(F)F)c2c1C` [Example 3.02], the IC50 in assay [2] stood at 2.6 nM; in assay [3], 113 nM. Taken in the same sequence, the figures for `Cc1c(OC(C)C)c(N=S(C)(C)=O)cc2ncnc(Nc3ccc(F)cc3O[C@H](C)C(F)(F)F)c12` [Example 3.03] were 6.5 nM and 282 nM. For `Cc1c(OC2CCOC2)c(N=S(C)(C)=O)cc2ncnc(Nc3ccc(F)cc3O[C@H](C)C(F)(F)F)c12` (some centres unmarked) [Example 3.04], the values for the IC50 in assay [2] and in assay [3] were 2.1 nM and 118 nM, respectively.
